The target of one test is Opioid receptor (Rattus norvegicus, UniProt P33533+P34975+P33535). Put plainly: 50% Inhibition of stereospecific [3H]-naltrexone (10e-9 M) binding towards opiate receptor in rat brain homogenate. The test is classed as tissue-based.
For test [1], the system named is Mus musculus. Put plainly: Analgesic activity in mice after subcutaneous administration in tail-flicking assay; activity value ranges from 3.0 - 5.4. The test is classed as functional. To be noted: sc.
Test [2] has as its system Mus musculus. In words: Analgesic activity in mice after oral administration in writhing assay; 13.71-42.00. The test is classed as functional.
The subject of test [3] is Mus musculus. Put plainly: Analgesic activity in mice after subcutaneous administration in writhing assay; 1.21-3.91. The test is classed as functional. To be noted: sc.
The test system of test [4] is Mus musculus. Put plainly: Analgesic activity in mice after oral administration in tail-flicking assay; 7.22-10.25. The test is classed as functional.
The test system of test [5] is Mus musculus. Put plainly: Analgesic activity in mice after oral administration in writhing assay; 0.70-2.80. The test is classed as functional.
Test [6] concerns Mus musculus. In words: Analgesic activity in mice after subcutaneous administration in writhing assay; 0.06-0.22. The test is classed as functional. To be noted: sc.
Test [7] is filed under the species Mus musculus. In words: animal or person. To be noted: sc.
Description: Analgesic activity in mice after subcutaneous administration in writhing assay; 0.26-0.83

Experimental findings from ChEMBL document CHEMBL1123025, “Acylmorphinans. A novel class of potent analgesic agents” (J Med Chem, 1985) are described below.

Structures are written as SMILES.

For the compound `CC(O)c1ccc2c(c1)[C@@]13CCCC[C@H]1[C@@H](C2)N(C)CC3.Cl` (some centres not stated), the IC50 on Opioid receptor turned out to be 14 nM.
At Opioid receptor, `CC(=O)c1ccc2c(c1)[C@@]13CCCC[C@H]1[C@@H](C2)N(CC1CC1)CC3.Cl` returned an IC50 of 70 nM. This IC50 lies about 5-fold higher than the previous one.
Still for that read-out and setting: the same measure for `CC(=O)c1ccc2c(c1)C[C@@H]1[C@@H]3CCCC[C@]23CCN1C`: 13000 nM.
For `CC(=O)c1ccc2c(c1)[C@@]13CCCC[C@H]1[C@@H](C2)N(C)CC3`, the ED50 in the test on Mus musculus [1] stood at 4 mg/kg. This compound also registered a 50% inhibitory concentration (IC50) on Opioid receptor of 210 nM.
In the case of `COc1ccc2c3c1O[C@H]1[C@@H](O)C=C[C@H]4[C@@H](C2)N(C)CC[C@@]341.COc1ccc2c3c1O[C@H]1[C@@H](O)C=C[C@H]4[C@@H](C2)N(C)CC[C@@]341.O.O=P(O)(O)O.O=P(O)(O)O` [CODEINE PHOSPHATE], the ED50 is 24 mg/kg in the test on Mus musculus [2] and 2.3 mg/kg with Mus musculus [3].
As for `CN1CC[C@]23CCCC[C@H]2[C@H]1Cc1ccc(O)cc13` [LEVORPHANOL], the values for the ED50 in the test on Mus musculus [4], in the test on Mus musculus [5] and in the test with Mus musculus [6] were 8.5 mg/kg, 1.4 mg/kg and 0.11 mg/kg, respectively. For the same compound, the IC50 at Opioid receptor was 0.004 nM.
On to `CN1CC[C@]23c4c5ccc(O)c4O[C@H]2[C@@H](O)C=C[C@H]3[C@H]1C5` [MORPHINE], for which, in the test filed under Mus musculus [7], the ED50 was 0.46 mg/kg.
